In patent publication US20240131032A1, “AN ACTIVITY-GUIDED MAP OF ELECTROPHILE-CYSTEINE INTERACTIONS IN PRIMARY HUMAN IMMUNE CELLS” (The Scripps Research Institute, priority 2019, published 2024):
Residues, ends and D or L forms follow the SMILES beside them. *: point of attachment. Cbz = O=C(OCc1ccccc1)*

Columns and labels:
[1] = biological target: T1, ERCC3 (Homo sapiens, UniProt P19447); experiment: isoTOP-ABPP and TMT-ABPP cysteine engagement, ERCC3; format: binding
T1 construct: endogenous in cells; host or cells: primary human T cells
T1 sequence (P19447 1-782): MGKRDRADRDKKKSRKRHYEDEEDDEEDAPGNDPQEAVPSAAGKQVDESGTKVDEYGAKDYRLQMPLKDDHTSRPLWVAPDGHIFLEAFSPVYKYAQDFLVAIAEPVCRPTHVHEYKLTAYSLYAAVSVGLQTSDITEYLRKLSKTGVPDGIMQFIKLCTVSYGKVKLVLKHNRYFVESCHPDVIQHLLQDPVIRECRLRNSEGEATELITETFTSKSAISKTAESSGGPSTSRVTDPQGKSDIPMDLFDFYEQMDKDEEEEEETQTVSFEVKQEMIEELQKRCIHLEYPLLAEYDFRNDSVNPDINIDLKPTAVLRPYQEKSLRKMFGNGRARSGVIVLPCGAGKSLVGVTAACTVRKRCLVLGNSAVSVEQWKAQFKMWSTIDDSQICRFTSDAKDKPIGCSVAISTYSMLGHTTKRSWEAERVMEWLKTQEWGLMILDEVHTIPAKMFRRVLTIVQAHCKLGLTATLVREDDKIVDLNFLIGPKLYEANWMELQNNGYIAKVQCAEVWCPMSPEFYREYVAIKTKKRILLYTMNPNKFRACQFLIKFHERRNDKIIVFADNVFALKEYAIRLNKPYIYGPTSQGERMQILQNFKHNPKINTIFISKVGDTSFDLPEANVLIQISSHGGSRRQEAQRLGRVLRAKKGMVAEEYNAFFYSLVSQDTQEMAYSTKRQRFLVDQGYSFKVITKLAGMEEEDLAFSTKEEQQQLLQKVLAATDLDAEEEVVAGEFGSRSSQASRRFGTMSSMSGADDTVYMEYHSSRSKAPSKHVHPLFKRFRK
Experimental: Activated or expanded T cells were re-suspended in RPMI media supplemented with 10% FBS, L-glutamine (2 mM), penicillin (100 U/mL), and streptomycin (100 μg/mL) at 2×10^6 cells/mL. The compounds were added to cells as 1000×DMSO stocks and mixed well with the media by pipetting up and down after addition. The cells were kept at 37° C. in 5% CO2 containing incubators for 3 h (or otherwise specified times), then pelleted by centrifugation (524 g, 5 min, 4° C.), washed with cold PBS (10 mL) and transferred to Eppendorf tubes (1 mL PBS). The cells were pelleted again (524 g, 5 min, 4° C.), flash-frozen, and kept at −80° C. until further analysis.
Activated or expanded primary human T cells were re-suspended in RPMI (1×10^6 cells/mL) containing 10% fetal bovine serum (FBS), penicillin (100 U/mL), streptomycin ([…]), and L-glutamine (2 mM). The cells were treated with DMSO or compounds for 3 h, pelleted (524 g, 5 min), washed with PBS, and lysed by sonication (2×8 pulses). Soluble and particulate proteomic fractions were separated by ultracentrifugation (100,000 g, 45 min), and protein concentration was normalized to 1.7 mg/mL using a standard DC protein assay (Bio-Rad). The resulting proteomes were analyzed by competitive isotopic Tandem Orthogonal Proteolysis Activity-Based Protein Profiling (isoTOP-ABPP).
Samples (500 μL, 1.7 mg/mL) were treated with iodoacetamide alkyne (IA-alkyne, 5 μL of 10 mM stock in DMSO, final concentration: 100 μM) for 1 h at ambient temperature. Modified proteins were then conjugated to isotopically labeled, TEV-cleavable biotin tags (TEV-tags) using copper-catalyzed azide-alkyne cycloaddition reaction (CuAAC). Reagents for the CuAAC reaction were pre-mixed prior to their addition to the proteome samples. […]
The heavy/light isoTOP-ABPP ratios (R values) for each unique peptide (DMSO/compound treated) were quantified with in-house CIMAGE software (Weerapana et al., 2010) using default parameters (3 MS1 acquisitions per peak and signal to noise threshold set to 2.5). Site-specific engagement of cysteine residues was assessed by blockade of IA-alkyne probe labeling. […] Ratios for unique peptide sequences were calculated for each experiment; overlapping peptides with the same modified cysteine (e.g., different charge states, elution times or tryptic termini) were grouped together and the median ratio was reported as the final ratio (R). […]

[2] = system: NF-κB; conditions: cited from earlier work
[3] = system: primary human T cells; conditions: cited from earlier work
[4] = biological target: T2, ITK (Homo sapiens, UniProt Q08881); experiment: Western blot of ITK protein content in T cells; format: cell-based; conditions: MG132 10 μM
T2 construct: endogenous in cells; host or cells: primary human T cells (αCD3/CD28-stimulated, naïve or expanded)
T2 sequence (Q08881 1-620): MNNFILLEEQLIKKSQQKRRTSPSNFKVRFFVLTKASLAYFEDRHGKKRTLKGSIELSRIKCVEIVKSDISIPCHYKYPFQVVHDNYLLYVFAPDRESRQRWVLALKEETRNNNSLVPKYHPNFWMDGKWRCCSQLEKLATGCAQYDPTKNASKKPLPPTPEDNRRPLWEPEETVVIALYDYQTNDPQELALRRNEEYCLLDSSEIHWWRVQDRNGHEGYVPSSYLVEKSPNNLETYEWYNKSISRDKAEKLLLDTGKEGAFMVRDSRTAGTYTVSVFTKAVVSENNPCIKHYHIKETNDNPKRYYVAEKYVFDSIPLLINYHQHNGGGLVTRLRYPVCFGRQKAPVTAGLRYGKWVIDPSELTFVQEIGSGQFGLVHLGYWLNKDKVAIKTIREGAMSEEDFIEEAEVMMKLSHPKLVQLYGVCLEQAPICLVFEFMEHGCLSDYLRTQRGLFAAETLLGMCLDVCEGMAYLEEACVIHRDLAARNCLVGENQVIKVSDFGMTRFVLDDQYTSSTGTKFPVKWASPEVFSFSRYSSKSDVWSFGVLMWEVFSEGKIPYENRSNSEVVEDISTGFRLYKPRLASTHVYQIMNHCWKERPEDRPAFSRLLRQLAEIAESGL
Experimental: T cells were treated with DMSO or compounds (5 μM each) for 8 h. […] (F) Quantitation of western blot data, where protein band intensity calculations were made using ImageJ software and represent the mean percentage of DMSO-treated control±SD; n=2-5 independent experiments per group. **p<0.01 by two-tailed unpaired t test with Welch's correction compared to EV-97 treatment. […] Data are presented as the mean percentage of DMSO-treated control±SEM; n=4 independent experiments per group. ****p<0.0001 by two-tailed unpaired t test with Welch's correction compared to DMSO-treated stim control.
Results are from one experiment representative of 2-5 independent experiments. […] Cells were treated with compounds (5 μM each) or DMSO control for 8 h. Protein band intensity calculations were made using ImageJ software and represent the mean percentage of DMSO-treated control±SD; n=2-5 independent experiments per group. **p<0.01 by two-tailed unpaired t test with Welch's correction compared to DMSO-treated stim control. […] Cells treated with DMSO or EV-96 (5 μM) for 1-8 h. Results are from a single experiment representative of 2-4 independent experiments. […] Cells were treated with compounds (5 μM each) or DMSO for 8 h. Results are from one experiment representative of 2 independent experiments.

[5] = system: NuRD complex; experiment: Expression-based proteomics (TMT-exp) of compound-treated T cells, NuRD complex; format: cell-based, human; conditions: MG132 10 μM co-treatment, 24 h
Experimental: FIG. 7B is a scatter plot representation of protein abundance changes caused by BPK-25 (10 μM, 24 h) in two independent replicate experiments, with decreases in NuRD complex components highlighted in red. FIG. 7C is a heatmap of top proteins with decreased abundance in BPK-25-treated T cells showing that the subset of these proteins in the NuRD complex (asterisks) were largely unaltered by other active compounds and blocked in their degradation by co-treatment with the proteasome inhibitor MG132. […] FIG. 7E is a bar graph […] showing time-dependent reductions in NuRD complex members in human T cells treated with BPK-25 (10 μM). Left, representative western blots. Right, quantification of changes in protein. […] FIG. 7G is a heat map showing the changes in cysteine reactivity for NuRD complex members in human T cells treated with BPK-25 and other active compounds.
Freshly isolated T cells (1.6×10^7 cells, 2×10^6 cells/mL in RPMI media) were treated with compound or DMSO for 24 h, pelleted (600 g, 5 min), and washed with PBS (1×10 mL). The cells were then transferred to an Eppendorf tube in additional PBS (1 mL), pelleted (600 g, 5 min), flash frozen, and kept at −80° C. until further analysis. On the first day of the whole proteome TMT protocol, the cells were thawed on ice and lysed in lysis buffer (150 μL, 1 tablet of Roche complete, mini, EDTA-free Protease Inhibitor Cocktail dissolved in 10 mL of PBS) using a probe sonicator (2×8 pulses). Protein concentration was adjusted to 2.0 mg/mL and the samples (100 μL) were transferred to new Eppendorf tubes (1.5 mL) containing urea (48 mg/tube, final urea concentration: 8 M). DTT (5 μL, 200 mM fresh stock in H2O, final DTT concentration: 10 mM) was then added to the tubes and the samples were incubated at 65° C. for 15 min. Following this incubation, iodoacetamide (5 μL, 400 mM fresh stock in H2O, final IA concentration: 20 mM) was added and the samples were incubated in the dark at 37° C. with shaking for 30 min. Ice-cold MeOH (600 μL), CHCl3 (200 μL), and H2O (500 μL) were then added, the mixture was vortexed and centrifuged (10,000 g, 10 min, 4° C.) to afford a protein disc at the interface of CHCl3 and aqueous layers. The top layer was aspirated without perturbing the disk, additional MeOH (600 μL) was added and the proteins were pelleted (10,000 g, 10 min, 4° C.) and used in the next step or stored at −80° C. overnight.
The resulting protein pellets were resuspended in EPPS buffer (160 μL, 200 mM, pH 8) using a probe sonicator (2×6 pulses). […]
The sample became clear after the overnight digestion. At this point, peptide concentration was determined using microBCA assay (Thermo Scientific) according to manufacturer's instructions. […]

[6] = biological target: T3, BIRC3 (Homo sapiens, UniProt Q13489); experiment: Western blot of BIRC3 content in human T cells; format: cell-based; conditions: MG132 10 μM with EV-3, 24 h
T3 construct: endogenous in cells; host or cells: primary human T cells
T3 sequence (Q13489 whole entry): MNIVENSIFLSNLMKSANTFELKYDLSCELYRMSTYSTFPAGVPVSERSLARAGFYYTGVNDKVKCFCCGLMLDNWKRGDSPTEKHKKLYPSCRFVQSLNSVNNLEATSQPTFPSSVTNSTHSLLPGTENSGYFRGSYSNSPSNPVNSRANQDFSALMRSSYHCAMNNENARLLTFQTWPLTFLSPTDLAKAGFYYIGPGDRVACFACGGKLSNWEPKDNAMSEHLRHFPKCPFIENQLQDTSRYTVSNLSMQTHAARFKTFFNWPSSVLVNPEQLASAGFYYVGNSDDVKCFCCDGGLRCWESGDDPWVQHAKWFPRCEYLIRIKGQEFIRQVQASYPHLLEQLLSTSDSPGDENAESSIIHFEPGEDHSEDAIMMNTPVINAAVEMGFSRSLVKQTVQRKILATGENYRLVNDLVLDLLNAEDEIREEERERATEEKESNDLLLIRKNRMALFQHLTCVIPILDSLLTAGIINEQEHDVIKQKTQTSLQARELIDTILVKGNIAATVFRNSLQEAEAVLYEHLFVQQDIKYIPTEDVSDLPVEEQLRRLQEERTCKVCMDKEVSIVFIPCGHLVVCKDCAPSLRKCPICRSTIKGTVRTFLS

[7] = biological target: BIRC2 (Homo sapiens, UniProt Q13490); experiment: Western blot of BIRC2 content in human T cells; conditions: MG132 10 μM with EV-3, 24 h
Chain of BIRC2 (Q13490 whole entry): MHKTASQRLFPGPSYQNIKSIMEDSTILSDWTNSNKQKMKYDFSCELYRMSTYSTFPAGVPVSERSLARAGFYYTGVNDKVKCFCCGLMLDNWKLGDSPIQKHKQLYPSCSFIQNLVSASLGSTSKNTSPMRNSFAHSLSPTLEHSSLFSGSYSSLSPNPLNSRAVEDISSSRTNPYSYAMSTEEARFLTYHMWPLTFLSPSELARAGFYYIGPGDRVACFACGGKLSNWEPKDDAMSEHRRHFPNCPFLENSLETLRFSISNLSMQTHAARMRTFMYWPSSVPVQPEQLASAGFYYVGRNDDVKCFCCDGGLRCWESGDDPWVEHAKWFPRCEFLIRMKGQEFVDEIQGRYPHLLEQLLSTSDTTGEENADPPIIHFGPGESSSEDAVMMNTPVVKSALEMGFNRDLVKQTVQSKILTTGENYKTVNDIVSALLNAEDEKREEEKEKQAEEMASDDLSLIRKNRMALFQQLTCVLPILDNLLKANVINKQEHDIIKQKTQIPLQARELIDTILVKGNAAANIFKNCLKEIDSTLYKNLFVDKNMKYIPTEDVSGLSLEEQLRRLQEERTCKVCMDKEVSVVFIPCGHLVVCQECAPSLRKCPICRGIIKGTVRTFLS
Experimental: All treatments were for 24 h.
All treatments were for 24 h. […] Plasmids expressing FLAG epitope-tagged versions of wild-type (WT) or the indicated cysteine-to-alanine mutants of BIRC2 (C45A) and BIRC3 (C28A) were co-transfected into primary human T cells with mCherry-expressing plasmid to control for transfection efficiency for 24 h. Cells were then treated with DMSO, EV-3 (10 μM), or AT-406 (1 μM) for 24 h and analyzed by anti-FLAG western blotting. […] (G) Quantitation of western blot data, where protein band intensity calculations were made using ImageJ software and represent the mean percentage of DMSO treated control±SEM; n=3 independent experiments per group. *p<0.05; **p<0.01 by two-tailed unpaired t test with Welch's correction compared to respective DMSO treatments.
Western blot analysis was performed on freshly isolated or expanded T cells. For Western blot protein degradation analysis, primary human T cells (2×10^7 cells/treatment) were re-suspended in RPMI media at 2×10^6 cells/mL and treated with the compounds or DMSO at 37° C. in a CO2 containing incubator for 24 h (or otherwise indicated times).

| Structure (SMILES) | engagement of C342 of ERCC3 [1] | NF-κB DNA binding activity (has been shown) [2] | effect on T cell activation (has been shown) [3] | effect on EV-96-mediated loss of ITK (co-treatment) [4] | effect on BPK-25-mediated reductions in NuRD complex proteins [5] | effect on EV-3-induced loss of BIRC3 [6] | effect on EV-3-induced loss of BIRC2 [7] |
| --- | --- | --- | --- | --- | --- | --- | --- |
| CC(C)[C@]12O[C@H]1[C@@H]1O[C@]13[C@]1(O[C@H]1C[C@H]1C4=C(CC[C@@]13C)C(=O)OC4)[C@@H]2O [triptolide] | also targeted | without blocking | impair T cell activation |  |  |  |  |
| CC(C)C[C@@H](C=O)NC(=O)[C@H](CC(C)C)NC(=O)[C@H](CC(C)C)NC(=O)OCc1ccccc1 [MG132, reference compound] (Cbz-Leu-Leu-Leu-aldehyde) |  |  |  | blocked | blocked | blocks | blocks |
